Laboratory results reported in PubChem BioAssay (NCI).
Values joined by “and” are separate entries in the source; they are usually repeats but may differ in a detail not shown here. Equal values may be shown once.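 Tested at 5 concentrations; 48 h exposure; 96-well plates; endpoints linearly interpolated, else capped at highest concentration. Abbreviation: GI50, concentration required for 50% inhibition of growth. Definition used: TGI = concentration required for complete inhibition of growth.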

The molecules below were run on MDA-MB-468 breast (assay: NCI-60 cell line screen, 48 h).

Compound	GI50	TGI
N=C(N)c1ccc(-c2ccc(-c3ccco3)o2)cc1	1390 nM	3790 nM
Nc1ncnc2c1ncn2C1OC(CO)C(O)C1O (centres undefined)	2140 nM	5410 nM
CC(=O)c1c[nH]c2ccc(-c3ccnc(Nc4ccc(NC(=O)c5cccc(F)c5)c(CN5CCOCC5)c4)n3)cc12	172 nM	582 nM
O=C1/C(=C/c2ccc(F)cc2)CN(Cc2cn(CCNc3ccnc4cc(Cl)ccc34)nn2)C/C1=C\c1ccc(F)cc1	1390 nM	3130 nM
CC([C@H]1CCC2C3CCC4C(=O)C(NC=O)=CC[C@]4(C)C3CC[C@@]21C)N(C)C (some centres undefined)	1900 nM	6260 nM
Cc1cc(C)c2nc(Nc3nc(C)c(C)c(=O)[nH]3)nc(C)c2c1	2130 nM	5890 nM
COC(=O)c1ccc2c(c1)[n+](=O)c(C(C)=O)c(C(F)(F)F)n2[O-]	1560 nM	3040 nM
CCCCCCCC(=O)SCC/C=C/[C@@H]1CC(=O)NCc2cccc(n2)CN(Cc2ccc(Cl)cc2)CC(=O)N[C@@H](C(C)C)C(=O)O1	13800 nM	> 100000 nM
COc1cc(C2CC(c3ccc(C)cc3)=NN2C(C)=O)ccc1Oc1ccnc2cc(Cl)ccc12 (centres undefined)	20700 nM	> 100000 nM
COc1ccc(CNCCN2C(=O)c3ccc4c5c(ccc(c35)C2=O)C(=O)N(CCNCc2ccc(OC)cc2)C4=O)cc1	191 nM	482 nM
O=c1cc(N2CCOCC2)oc2c(-c3ccccc3)cccc12	2850 nM	18000 nM
O=C(CCCCCn1c2ccccc2c2c3c(c4c5ccccc5[nH]c4c21)C(=O)N(O)C3=O)N1CCOCC1	2710 nM	5900 nM
COc1cc(OC)cc(-c2n[nH]nc2-c2ccc3c(c2)OCO3)c1	226 nM	25800 nM
O=C(NCCc1ccccc1)C(c1csc2ccccc12)N(C(=O)CCl)c1ccc(-c2cnco2)cc1 (centres undefined)	812 nM	2600 nM
COc1cccc(-n2cnc3c(N/N=C/c4ccncc4)ncnc32)c1	6400 nM	> 25000 nM
COc1ccc(/C(C#N)=C/c2nc3c(N4CCOCC4)nc(Cl)nc3n2C)cc1OC	20.4 nM	1340 nM
Oc1ccc(Br)cc1CN1CCN(Cc2ccc(Cl)cc2)CC1	5100 nM	55800 nM
CC(C)=CCNc1ncnc2c1ncn2C1OC(COP(=O)(O)O)C(O)C1O (centres undefined)	2010 nM	5400 nM
COc1ccc(C2CC(c3cccc(Nc4ccnc5cc(Cl)ccc45)c3)=NN2c2ccccc2)cc1 (centres undefined)	2130 nM	34300 nM
CN1CCN(c2nc(C3=C(c4c[nH]c5ccccc45)C(=O)NC3=O)c3ccccc3n2)CC1	13400 nM and 15000 nM	43600 nM and 30400 nM
C=CC[n+]1c(/C=C2\Sc3ccccc3N2C)sc(-c2ccccc2)c1-c1ccccc1	251 nM	911 nM
CN1CCN(c2nc(NCCNc3ccnc4cc(Cl)ccc34)c3ccccc3n2)CC1	1460 nM	4640 nM
COc1cc(C2C3=C(COC3=O)N(CCO)c3cc4c(cc32)OCCO4)cc(OC)c1O (centres undefined)	1010 nM	> 11600 nM
CCCCCc1c(C)[nH]c(/C=C2\N=C(c3ccc[nH]3)C=C2Oc2ccc(OC)cc2)c1C	65.5 nM and 27.1 nM	2040 nM and 288 nM
CCSc1sc(-c2ccc(C)cc2)nc1[P+](c1ccccc1)(c1ccccc1)c1ccccc1	219 nM	731 nM
C=C1c2c(C)nn(-c3ccccc3)c2N(C)C23C[C@@H]1C1(C)c4c(C)nn(-c5ccccc5)c4N(C)C(C)(C[C@H]12)C3 (some centres undefined)	2900 nM	27900 nM
N#CC1=C(N)Oc2c(sc3c(F)cccc23)C1c1ccc(Cl)cc1 (centres undefined)	3180 nM	12100 nM
